Source: article PMC2652713, “Molecular Blocking of CD23 Supports Its Role in the Pathogenesis of Arthritis” (PLoS ONE, 2009)

Assays:
[1] = tested on: peritoneal macrophages of AIA rats; experiment: Ex vivo cytokine release from peritoneal macrophages of treated AIA rats, ELISA; assay type: in vivo, rat, Female Lewis; settings: treatment after onset of symptoms (AIA+p30A, 10 mg/rat; HC 30 mg/rat); cells collected 50 days post-immunization; 48 h culture; 4 rats
Description: AIA rats were treated either after (AIA+p30A) or before (p30A+AIA) the onset of symptoms. Treatment consisted of p30A (10 mg/rat) or hydrocortisone (HC, 30 mg/rat). Rat peritoneal macrophages were collected following 50 days post-immunization, washed and re-incubated in culture medium alone. Cell supernatants were collected 48 h later and cytokine levels were quantified. Macrophages from healthy rats were also incubated in similar conditions. Values are mean±s.d. of cells from 4 different rats.
Adjuvant arthritis was induced in six week-old animals by subcutaneous injection at the base of the tail of 300 µl containing 1.8 mg of inactivated Mycobacterium butyricum (Difco Laboratories, Detroit, MI) diluted in emulsion of 8 ml Vaseline, 1 ml polysorbate 80, and 1 ml PBS (Phosphate Buffer Saline, Eurobio). Rats were boosted one week later following the same procedure. Observation was conducted for up to 50 days following immunization for clinical signs of arthritis. Rats were divided in different groups of 8 rats. Groups were treated with five injections (every 2 days) of either p30A (10, 50 or 100 mg in a PBS solution), pCtl, hydrocortisone (Sigma Aldrich) or PBS solution. Injections were initiated two days after the appearance of first arthritic symptoms (therapeutic) or on the first day of immunization (preventive). […] Rats were sacrificed 50 days after AIA induction. Peritoneal macrophages were collected and incubated in culture medium alone for 48 h. Quantification of TNF-α and IL-1β in rat cell supernatants was performed using appropriate ELISA kits and according to manufacturer's recommendations (Biosource, Montrouge, France).

iNOS = settings: cited from earlier work
From the text: Upon acquisition of CD23 surface expression, human cells may be activated using its biological ligands (e.g. IgE/antigen) or cross-linking with a specific anti-CD23 McAb, [16]. […] To confirm the ability of p30A to inhibit CD23-mediated signaling in human macrophages, we pretreated cells with purified peptides prior to their activation by McAb. Synthetic p30A reduced the levels of inducible nitric oxide syntha ...

[2] = tested on: human CD23+ monocyte-derived macrophages; experiment: Nitrite (NO) generation by CD23-activated human macrophages, Griess reaction; assay type: cell-based; settings: for iNOS-mediated NO generation: pre-incubation prior to CD23-mediated activation, mean±s.d. of 7 donors (Figure 2C)
Description: Figure 2 Inhibition of CD23-mediated activation of iNOS pathway in human macrophages by p30A. Human CD23^+ monocyte-derived macrophages were incubated with cross-linking CD23-McAb (20 µg/ml) alone or following 1 h pre-incubation with 10 µg/ml of various peptides. […] Expression of iNOS mRNA was compared to HPRT mRNA levels. (B) Inhibition of NO generation from human activated macrophages by synthetic peptides. Cell supernatants were collected 72 h following cell cultures and levels of nitrites were determined. […] Results are expressed as mean of 3 distinct donor cell preparations (SEM<20%). (C) Inducible NOS-mediated NO generation in human macrophages is decreased following pre-incubation with p30A or L-NIL prior to CD23-mediated activation. Results are expressed as mean±s.d. of 7 distinct donor cell preparations.
(§1) Monocytes or macrophages were activated through CD23 pathway: while monocytes/macrophages from RA patients express CD23, monocytes from healthy donors must be pre-activated to express surface CD23 as described. This pre-activation was obtained by incubation of healthy monocytes with recombinant human IL-4 (20 ng/ml) during 48 h at 37°C; After washing, all cell populations were tested by flow cytometry for their surface CD23 expression (>80% CD23^+) and then incubated in the presence of cross-linking CD23-MAb (clones 135 or DM2, IgG1k, 20 µg/ml) during 48–72 h, or IgE and anti-IgE as described, [17]. When indicated, peptides were added to the cells 2 h prior to their activation. Cells supernatants were then analyzed for their nitric oxide content (see below) and for the presence of cytokines: levels of TNF-α and IL-6 were determined in duplicates for each sample by a specific ELISA (R&D, Paris, France) while levels of IL-1β, IL-8 and IL-10 was determined using FlowCytomix Human Th1/Th2 Kit as recommended (Bender Medsystems, Vienna, Austria).
Culture supernatants (72 h) were assayed for the stable end-product of NO, NO2 ^− using the Griess reaction modified as detailed elsewhere. Inhibitory analog of L-arginine, L-NIL (N(6)-(1-iminoethyl)-L-lysine/2HCl, Coger SA, Paris, France) was used to inhibit iNOS-mediated NO generation. This method gave a sensitivity limit of 0.2 µM if low NO2 ^− medium (DMEM) was used. Total RNA was isolated as above from peritoneal macrophages. Reverse transcription-PCR was performed with an automatic thermal cycler (iCycler, Biorad) using the following specific primers: iNOS mRNA sense (5′-[…]-3′, exon 8) and iNOS mRNA antisense (5′-[…]-3′, exon 11). Hypoxanthine phosphoribosyltransferase (HPRT) mRNA sense (5′-[…]-3′) and HPRT mRNA antisense (5′-[…]- 3′) primers were used as controls. The iNOS messenger is represented by a 371-bp band, whereas a 496-bp band indicates the HPRT messenger.

asthma = settings: Phase I; cited from earlier work
From the text: CD23 was also directly triggered by specific antibodies as therapeutic approach.

[3] = tested on: adjuvant-induced arthritis in rats; experiment: Adjuvant-induced arthritis (AIA) clinical score in rats; assay type: in vivo, rat, Female Lewis; settings: AIA rats; pCtl 100 mg/rat
Description: Figure 6 Inhibition of in vitro and in vivo inflammatory responses in rats by p30A peptide. (A) Rat peritoneal macrophages were activated via CD23 antigens with/without p30A, L-NIL or pCtl. Cell supernatants were collected 48 h later and nitrite levels were quantified. Values are mean±s.d. of cells from 3 different rats. (B) Cumulative clinical score/rat obtained following 50 days post-immunization in all groups. AIA rats were treated either after or before (d0) the onset of symptoms. Treatment consisted of p30A, hydrocortisone (HC, 30 mg/rat)) or pCtl (100 mg/rat). Shown are means of cumulative score/rat±s.d. from 5 (HC) or 8 rats (other conditions). (C) Evolution of arthritis severity scores of adjuvant-induced arthritis (AIA) in rats treated with intracutaneous p30A or pCtl (100 mg/rat) or hydrocortisone (after the onset of clinical signs as illustrated by arrows (means from 8 rats, s.e.m.<20%). (D) Histopathologic analysis confirm p30A ability to decrease all components of AIA lesions: pannus formation and inflammation of the synovium (P), deformity of joint and bones (asterix), bone remodeling and destruction (arrowhead), bone neoformation (arrows) and cartilage destruction.
All animal procedures were performed in strict accordance with the guidelines issued by the European Economic Community “86/609”. Female Lewis rats (Janvier, Le Genest St Isle, France) were housed under standard laboratory conditions with free access to food and water. The temperature was kept at 22±2°C and a 12 hour light/dark schedule was maintained.
Adjuvant arthritis was induced in six week-old animals by subcutaneous injection at the base of the tail of 300 µl containing 1.8 mg of inactivated Mycobacterium butyricum (Difco Laboratories, Detroit, MI) diluted in emulsion of 8 ml Vaseline, 1 ml polysorbate 80, and 1 ml PBS (Phosphate Buffer Saline, Eurobio). Rats were boosted one week later following the same procedure. Observation was conducted for up to 50 days following immunization for clinical signs of arthritis. Rats were divided in different groups of 8 rats. Groups were treated with five injections (every 2 days) of either p30A (10, 50 or 100 mg in a PBS solution), pCtl, hydrocortisone (Sigma Aldrich) or PBS solution. Injections were initiated two days after the appearance of first arthritic symptoms (therapeutic) or on the first day of immunization (preventive). Evaluation of AIA severity was performed by two independent observers who where not aware of the study protocol. The severity of AIA in each paw was quantified daily using an ordinal clinical score measurement from 0 to 4 as follows: no signs of inflammation ( = 0); swelling alone (>2 fold paw diameter) ( = 1) or swelling/immobility ( = 2) of one paw; swelling ( = 3) or swelling/immobility ( = 4) of two paws. Weight evolution of rats was measured daily. Rats were sacrificed 50 days after AIA induction. Peritoneal macrophages were collected and incubated in culture medium alone for 48 h. Quantification of TNF-α and IL-1β in rat cell supernatants was performed using appropriate ELISA kits and according to manufacturer's recommendations (Biosource, Montrouge, France).

[4] = tested on: healthy human PBL-derived macrophages; experiment: Inflammatory mediator release from healthy human PBL-derived macrophages; assay type: cell-based; settings: mean±s.d.
Description: Figure 4 Inhibition of inflammatory mediator generation from healthy human PBL-derived macrophages by p30A. Decreased levels of TNF-α (A), IL-6 (B), IL-1β, IL-8 and IL-10 (C) were detected in CD23-activated cells after incubation with p30A. […] Values are mean±s.d. of cells from 5 (IL-6, TNF-α) or 2 (IL-1β, IL-8, IL-10) different donors.
as §1

Molecule: C[C@]12CCC(=O)C=C1CC[C@@H]1[C@@H]2[C@@H](O)C[C@@]2(C)[C@H]1CC[C@]2(O)C(=O)CO [hydrocortisone, reference compound]
- IL-1β release ex vivo, therapeutic [1]: moderately decreased IL-1β levels

Molecule: CC(=N)NCCCC[C@H](N)C(=O)O.Cl.Cl [L-NIL, N(6)-(1-iminoethyl)-L-lysine/2HCl, reference compound]
- iNOS inhibition (iNOS): specific inhibitor of iNOS
- iNOS-mediated NO generation [2]: decreased

Molecule: lumiliximab: Primate/human CD23-McAb, developed for the treatment of chronic lymphocytic leukemia
- clinical outcome, asthma (asthma): promising therapy in Phase I of clinical trials for asthma

Molecule: SFNYNYA [pCtl, reference compound]
- beneficial effect on arthritis [3]: this beneficial effect was not found
- IL-6 level ([4]; ELISA, 5 donors): No effect
- TNF-α level ([4]; ELISA, 5 donors): No effect
- IL-1β level ([4]; FlowCytomix, 2 donors): No effect
- IL-8 level ([4]; FlowCytomix, 2 donors): No effect
- IL-10 level ([4]; FlowCytomix, 2 donors): No effect
- NO (nitrite) generation, dose-dependence ([2]; CD23-McAb 20 µg/ml, 1 h pre-incubation with peptide, supernatants at 72 h, mean of 3 donors (SEM<20%)): no effect
- iNOS-mediated NO generation [2]: not observed
